Data on one compound can be found in patent publication US20210023089A1, “Compositions Useful for Treating Herpes Simplex Keratitis, and Methods Using Same” (priority 2013, published 2021).

One test deals with HSV-1. Nature of the test: Time-of-addition of KU-55933 in HSV-1 infected hTCEpi cells (Western blot gC, qRT-PCR genome). In kind it is cell-based. The following applies: MOI 1, KU-55933 10 μM, read at 8 hpi. As to the method:
Standard protocol was followed for Western blot analysis. Cell lysates were collected in Laemmli buffer, vortexed, and boiled at 95° C. for 5 min. Protein concentrations were measured by reducing agent-compatible BCA assay. SDS-PAGE was followed by transfer onto a PVDF membrane, which was then blocked in 5% BSA. Primary antibody staining was performed overnight and blots were visualized on film or with the Odyssey near-infrared system (LI-COR, Lincoln, Nebr.). Primary antibodies against the following proteins were used: ICP0 (Virusys Corporation, Taneytown, Md.), ICP4, PML, and nucleolin (Santa Cruz Biotechnology, Santa Cruz, Calif.), ICP8, glycoproteins B and C, ATM and pATM-Ser1981 (Rockland, Gilbertsville, Pa.), Chk2 and pChk2-Thr68 (Cell Signaling, Danvers, Mass.).
Total DNA was isolated from infected cells using the DNeasy Blood & Tissue Kit (QIAGEN, Hilden, Germany). Real time quantitative PCR was performed with SYBR Green (Bio-Rad, Hercules, Calif.). Target primers for UL30 (DNA polymerase catalytic subunit) and reference primers for GAPDH were used to measure genome replication. Primer sequences were provided in Alekseev et al., 2014, Invest. Ophthalm. Vis. Sci. 55:706-715). Real time PCR data were processed using the ΔΔC(t) method.
hTCEpi, EPC2, and OKF6 are normal human epithelial cells from cornea, esophagus, and palate, respectively. […]
A general note: Immunoblotting shows a protein as a band on a membrane.

A further test has as its target T1, ATM (Homo sapiens, UniProt Q13315).
T1 construct: The epithelial layers were collected for protein lysates and analyzed by Western blot with antibodies against pATM (Ser1981) and total ATM; tissue Lions Eye Bank of Delaware Valley; host or cells: epithelial layer of explanted human corneas
Put plainly: pATM Western blot in bleomycin-damaged ex vivo human corneas (bioavailability). The following applies: bleomycin 200 μg/mL 1 hour, KU-55933 10 μM 1 hour pretreatment. It counts as cell-based. The method, then:
Human corneas were obtained from the Lions Eye Bank of Delaware Valley. Rabbit corneas were excised from intact fresh eyeballs of young (8-12 weeks) albino rabbits (Pel-Freez Biologicals, Rogers, Ark.). Protocol (Alekseev et al., 2012, J Vis Exp 69:e3631) for ex vivo corneal culture, infection, and treatment was followed closely. Briefly, corneoscleral buttons were excised and rinsed in PBS containing 200 U/mL penicillin and 200 μg/mL streptomycin. The endothelial concavity was filled with culture medium containing 1% low melting temperature agarose. The corneas were cultured epithelial side up in MEM medium supplemented with nonessential amino acids (1×), 2 mM […], 200 U/mL penicillin, and 200 μg/mL streptomycin. The next day, they were infected with 1×10^4 plaque forming units (PFU)/cornea of strain KOS HSV-1 for 1 hour, rinsed, and overlaid with fresh medium. Drug treatments were administered at the same concentrations as for cultured cells. For KU-55933 bioavailability assessment, corneas were treated with bleomycin (200 μg/mL) for 1 hour. […] Treatment toxicity was assessed by briefly staining the cornea with fluorescein (1% wt/vol in PBS) and imaging the epithelial defects with 464-nm wavelength blue light (LDP LLC, Carlstadt, N.J.).
Standard protocol was followed for Western blot analysis. […] Protein concentrations were measured by bicinchoninic acid (BCA) assay. […]

T1 sequence (Q13315 whole entry): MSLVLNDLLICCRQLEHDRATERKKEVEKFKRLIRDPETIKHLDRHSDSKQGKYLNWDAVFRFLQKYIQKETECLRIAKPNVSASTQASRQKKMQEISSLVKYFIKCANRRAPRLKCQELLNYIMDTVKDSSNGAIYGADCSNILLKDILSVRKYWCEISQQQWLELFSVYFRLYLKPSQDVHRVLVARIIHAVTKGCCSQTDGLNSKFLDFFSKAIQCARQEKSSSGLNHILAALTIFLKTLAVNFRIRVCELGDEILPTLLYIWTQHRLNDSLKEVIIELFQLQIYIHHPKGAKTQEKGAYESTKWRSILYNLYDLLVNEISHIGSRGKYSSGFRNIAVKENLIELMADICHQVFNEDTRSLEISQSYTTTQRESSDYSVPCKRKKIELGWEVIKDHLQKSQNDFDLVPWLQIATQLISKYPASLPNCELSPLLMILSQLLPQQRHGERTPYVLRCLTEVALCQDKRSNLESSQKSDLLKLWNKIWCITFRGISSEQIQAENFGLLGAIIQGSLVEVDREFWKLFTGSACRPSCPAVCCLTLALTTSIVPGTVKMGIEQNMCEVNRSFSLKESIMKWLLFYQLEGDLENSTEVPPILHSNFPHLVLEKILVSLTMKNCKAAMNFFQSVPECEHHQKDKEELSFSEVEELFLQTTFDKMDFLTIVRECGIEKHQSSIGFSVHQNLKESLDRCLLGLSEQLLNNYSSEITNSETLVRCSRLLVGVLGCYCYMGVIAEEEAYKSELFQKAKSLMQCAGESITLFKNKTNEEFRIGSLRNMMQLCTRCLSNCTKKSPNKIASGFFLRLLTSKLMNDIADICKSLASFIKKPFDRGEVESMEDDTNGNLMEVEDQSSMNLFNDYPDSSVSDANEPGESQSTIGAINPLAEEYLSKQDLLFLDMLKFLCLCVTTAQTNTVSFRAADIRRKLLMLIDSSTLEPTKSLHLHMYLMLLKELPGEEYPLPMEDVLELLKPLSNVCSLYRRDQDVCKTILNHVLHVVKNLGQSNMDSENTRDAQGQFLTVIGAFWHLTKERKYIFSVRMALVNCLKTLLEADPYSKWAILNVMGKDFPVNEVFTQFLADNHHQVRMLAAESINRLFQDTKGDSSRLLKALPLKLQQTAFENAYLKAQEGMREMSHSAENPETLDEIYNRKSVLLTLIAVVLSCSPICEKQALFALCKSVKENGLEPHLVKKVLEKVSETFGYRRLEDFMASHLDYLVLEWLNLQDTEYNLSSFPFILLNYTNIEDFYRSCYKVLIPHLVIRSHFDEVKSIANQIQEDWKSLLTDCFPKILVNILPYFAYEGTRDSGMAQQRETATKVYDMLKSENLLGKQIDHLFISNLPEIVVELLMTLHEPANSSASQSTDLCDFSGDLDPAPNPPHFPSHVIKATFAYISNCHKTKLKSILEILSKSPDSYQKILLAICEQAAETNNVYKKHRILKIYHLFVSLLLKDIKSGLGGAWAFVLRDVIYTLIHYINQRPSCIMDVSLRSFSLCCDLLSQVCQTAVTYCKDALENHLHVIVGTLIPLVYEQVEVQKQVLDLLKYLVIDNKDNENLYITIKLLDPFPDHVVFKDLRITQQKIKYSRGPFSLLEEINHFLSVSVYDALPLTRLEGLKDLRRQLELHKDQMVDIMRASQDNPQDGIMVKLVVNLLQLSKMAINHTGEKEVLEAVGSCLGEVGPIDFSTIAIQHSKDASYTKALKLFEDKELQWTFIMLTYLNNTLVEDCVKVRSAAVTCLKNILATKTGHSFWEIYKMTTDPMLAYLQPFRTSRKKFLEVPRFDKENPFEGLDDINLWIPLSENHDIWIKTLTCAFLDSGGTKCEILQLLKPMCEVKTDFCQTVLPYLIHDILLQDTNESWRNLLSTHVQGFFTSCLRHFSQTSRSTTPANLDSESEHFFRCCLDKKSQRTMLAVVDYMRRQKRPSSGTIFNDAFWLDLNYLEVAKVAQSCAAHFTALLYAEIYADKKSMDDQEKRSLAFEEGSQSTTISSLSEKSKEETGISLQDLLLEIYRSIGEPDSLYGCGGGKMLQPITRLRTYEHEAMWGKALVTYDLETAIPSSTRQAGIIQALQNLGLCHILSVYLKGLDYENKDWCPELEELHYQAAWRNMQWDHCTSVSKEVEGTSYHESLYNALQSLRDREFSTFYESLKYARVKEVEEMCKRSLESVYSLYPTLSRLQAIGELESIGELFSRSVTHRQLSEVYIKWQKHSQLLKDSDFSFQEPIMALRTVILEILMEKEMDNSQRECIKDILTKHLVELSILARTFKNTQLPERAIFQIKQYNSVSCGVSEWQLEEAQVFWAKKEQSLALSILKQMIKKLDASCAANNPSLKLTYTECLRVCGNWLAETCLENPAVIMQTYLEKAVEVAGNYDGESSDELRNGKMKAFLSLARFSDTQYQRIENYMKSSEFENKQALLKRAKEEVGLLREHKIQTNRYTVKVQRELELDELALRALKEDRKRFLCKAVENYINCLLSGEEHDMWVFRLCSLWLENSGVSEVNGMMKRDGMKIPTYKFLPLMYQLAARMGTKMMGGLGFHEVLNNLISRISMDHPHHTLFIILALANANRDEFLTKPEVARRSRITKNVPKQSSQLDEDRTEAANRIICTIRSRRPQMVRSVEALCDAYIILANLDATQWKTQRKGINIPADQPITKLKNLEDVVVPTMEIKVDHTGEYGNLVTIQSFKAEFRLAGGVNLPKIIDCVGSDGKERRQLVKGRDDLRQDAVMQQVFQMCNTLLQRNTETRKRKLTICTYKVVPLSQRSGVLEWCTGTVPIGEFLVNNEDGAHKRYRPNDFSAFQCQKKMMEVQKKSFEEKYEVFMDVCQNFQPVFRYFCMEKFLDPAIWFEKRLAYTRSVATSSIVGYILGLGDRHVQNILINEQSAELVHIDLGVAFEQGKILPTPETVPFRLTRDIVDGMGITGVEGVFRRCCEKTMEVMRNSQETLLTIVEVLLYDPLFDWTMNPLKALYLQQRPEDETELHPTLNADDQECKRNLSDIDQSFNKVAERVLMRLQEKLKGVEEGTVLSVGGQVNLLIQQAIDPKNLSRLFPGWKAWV

`O=c1cc(-c2cccc3c2Sc2ccccc2S3)oc(N2CCOCC2)c1` [KU-55933, 2-(morpholin-4-yl)-6-(thianthren-1-yl)-pyran-4-one]: in the test on HSV-1, the “viral replication, treatment administered at 1 hpi and later” value is “significantly less effect”; the “viral replication, treatment started prior to the 1 hpi timepoint” value was “notable reduction”. On ATM, the “pATM level in corneal epithelium” value is reported as “completely eliminated”.
